Consider 9 compounds from ChEMBL document CHEMBL5344402, “A multi-target directed ligands strategy for the treatment of Alzheimer's disease: Dimethyl fumarate plus Tranilast modified Dithiocarbate as AChE inhibitor and Nrf2 activator” (Eur J Med Chem, 2022).

By inhibition is commonly meant the drop in the measured response relative to a control, in per cent. The Papp is a coefficient for how fast a substance crosses the barrier. Low readings indicate slow passage, high ones fast passage. By IC50 is commonly meant the concentration that gives 50% inhibition.

Data set [1] has as its target Cholinesterase (Homo sapiens) (UniProt P06276). Put plainly: Inhibition of human BuChE using butyrylthiocholine iodide as substrate at 10 uM preincubated for 5 mins followed by substrate addition by DTNB reagent based Ellman's method relative to control.
In data set [2] the target is Cholinesterase (Equus caballus) (UniProt P81908). Briefly: Inhibition of equine serum BuChE using butyrylthiocholine iodide as substrate at 10 uM preincubated for 5 mins followed by substrate addition by DTNB reagent based Ellman's method relative to control. It is filed as cell-free.
A short description of a further data set: in vitro. The note with it: PAMPA. A general note: PAMPA measures passive passage across an artificial lipid membrane.
Data set [3] deals with Acetylcholinesterase (Homo sapiens, UniProt P22303). Put plainly: Inhibition of human AChE using acetylthiocholine iodide as substrate preincubated for 5 mins followed by substrate addition by DTNB reagent based Ellman's method. On the technique in general: In Ellman's method for cholinesterases, released thiocholine reacts with DTNB.
Data set [4] addresses Acetylcholinesterase (Electrophorus electricus, UniProt O42275). Briefly: Inhibition of electric eel AChE using acetylthiocholine iodide as substrate preincubated for 5 mins followed by substrate addition by DTNB reagent based Ellman's method.

Sequence of Acetylcholinesterase (Homo sapiens, UniProt P22303) (P22303 whole entry): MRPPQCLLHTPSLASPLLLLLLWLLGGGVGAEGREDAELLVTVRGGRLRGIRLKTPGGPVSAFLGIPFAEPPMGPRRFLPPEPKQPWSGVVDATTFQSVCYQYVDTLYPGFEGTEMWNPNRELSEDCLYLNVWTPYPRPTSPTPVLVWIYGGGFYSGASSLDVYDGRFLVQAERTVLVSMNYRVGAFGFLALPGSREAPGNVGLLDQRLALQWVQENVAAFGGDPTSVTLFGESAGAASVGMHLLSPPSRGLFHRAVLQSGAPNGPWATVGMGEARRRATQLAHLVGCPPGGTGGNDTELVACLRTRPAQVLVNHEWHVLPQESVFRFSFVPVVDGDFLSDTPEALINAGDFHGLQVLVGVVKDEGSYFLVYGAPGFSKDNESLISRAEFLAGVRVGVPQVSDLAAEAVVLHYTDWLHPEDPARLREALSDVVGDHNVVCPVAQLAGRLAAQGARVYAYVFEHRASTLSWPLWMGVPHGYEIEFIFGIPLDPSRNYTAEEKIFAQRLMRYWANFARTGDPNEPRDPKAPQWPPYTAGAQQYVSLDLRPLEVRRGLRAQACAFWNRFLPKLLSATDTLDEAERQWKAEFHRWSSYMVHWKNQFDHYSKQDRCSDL
Sequence of Acetylcholinesterase (Electrophorus electricus, UniProt O42275) (O42275 whole entry): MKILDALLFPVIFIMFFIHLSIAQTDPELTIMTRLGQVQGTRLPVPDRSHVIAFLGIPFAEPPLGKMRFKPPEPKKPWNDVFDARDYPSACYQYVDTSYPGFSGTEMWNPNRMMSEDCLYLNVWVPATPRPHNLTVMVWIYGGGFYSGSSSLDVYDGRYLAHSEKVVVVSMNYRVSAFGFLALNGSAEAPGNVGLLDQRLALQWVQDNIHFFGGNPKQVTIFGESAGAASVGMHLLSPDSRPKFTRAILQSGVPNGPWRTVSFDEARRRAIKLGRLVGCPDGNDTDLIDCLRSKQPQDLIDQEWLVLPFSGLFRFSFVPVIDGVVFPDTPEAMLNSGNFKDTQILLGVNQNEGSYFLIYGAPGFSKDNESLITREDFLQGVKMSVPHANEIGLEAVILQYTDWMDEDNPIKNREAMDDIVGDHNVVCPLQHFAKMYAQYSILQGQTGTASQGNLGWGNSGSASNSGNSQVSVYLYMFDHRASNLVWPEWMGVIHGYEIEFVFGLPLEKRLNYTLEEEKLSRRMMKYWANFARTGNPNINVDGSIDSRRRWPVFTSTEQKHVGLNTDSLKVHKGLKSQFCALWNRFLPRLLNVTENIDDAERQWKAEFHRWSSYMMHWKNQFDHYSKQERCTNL
Sequence of Cholinesterase (Equus caballus) (P81908 whole entry): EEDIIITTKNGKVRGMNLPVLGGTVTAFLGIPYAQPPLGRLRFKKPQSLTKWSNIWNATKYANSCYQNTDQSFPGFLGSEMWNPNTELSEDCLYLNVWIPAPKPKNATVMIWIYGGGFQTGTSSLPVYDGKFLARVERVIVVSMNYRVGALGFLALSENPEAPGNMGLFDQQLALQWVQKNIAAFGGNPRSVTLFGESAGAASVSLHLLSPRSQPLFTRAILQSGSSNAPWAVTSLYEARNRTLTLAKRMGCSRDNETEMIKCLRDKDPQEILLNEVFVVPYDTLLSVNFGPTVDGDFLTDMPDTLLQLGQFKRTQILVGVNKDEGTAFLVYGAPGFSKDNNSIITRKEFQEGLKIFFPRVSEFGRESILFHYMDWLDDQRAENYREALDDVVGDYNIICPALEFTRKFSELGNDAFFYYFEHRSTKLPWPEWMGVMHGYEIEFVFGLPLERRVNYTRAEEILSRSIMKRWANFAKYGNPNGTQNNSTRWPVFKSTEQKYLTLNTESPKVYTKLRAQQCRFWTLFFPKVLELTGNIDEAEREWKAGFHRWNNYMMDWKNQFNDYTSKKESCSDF
Sequence of Cholinesterase (Homo sapiens) (P06276 whole entry): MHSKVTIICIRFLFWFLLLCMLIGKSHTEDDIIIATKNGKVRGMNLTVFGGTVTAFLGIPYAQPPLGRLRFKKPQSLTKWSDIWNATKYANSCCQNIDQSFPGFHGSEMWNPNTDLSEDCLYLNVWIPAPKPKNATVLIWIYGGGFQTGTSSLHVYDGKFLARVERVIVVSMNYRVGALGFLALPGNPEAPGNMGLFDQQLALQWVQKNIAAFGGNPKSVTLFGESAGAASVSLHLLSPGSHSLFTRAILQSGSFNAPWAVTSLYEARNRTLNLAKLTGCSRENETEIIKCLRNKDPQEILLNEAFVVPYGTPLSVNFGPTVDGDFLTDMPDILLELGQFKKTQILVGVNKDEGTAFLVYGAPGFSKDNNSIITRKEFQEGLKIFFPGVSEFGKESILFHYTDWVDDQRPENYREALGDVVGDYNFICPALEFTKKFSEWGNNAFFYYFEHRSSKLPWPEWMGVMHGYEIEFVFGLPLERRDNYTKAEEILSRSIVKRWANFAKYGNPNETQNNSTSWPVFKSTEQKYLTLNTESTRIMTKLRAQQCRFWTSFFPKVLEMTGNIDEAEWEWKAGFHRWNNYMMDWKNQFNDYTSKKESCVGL

For `COC(=O)/C=C/C(=O)Nc1cccc(OCCCSC(=S)N2CCCCC2)c1`, the inhibition in data set [1] is 7.06%; in data set [2], 13.2%. Further, in “in vitro”, the Papp at 18 h was found to be 13 ×10⁻⁶ cm/s. For the same compound, the results for the IC50 against Acetylcholinesterase [3] and against Acetylcholinesterase [4] were 1.98 µM and 2.38 µM, respectively.
In turn, `COC(=O)/C=C/C(=O)Nc1cccc(OCCCCSC(=S)N2CCN(C)CC2)c1` yielded an inhibition in data set [2] greater than 5%. The compound further showed a half-inhibitory concentration (IC50) at Acetylcholinesterase [4] of 91.6 µM.
As for `COC(=O)/C=C/C(=O)Nc1cccc(OCCCCSC(=S)N2CCCCC2)c1`, the inhibition in data set [1] and in data set [2] was less than 5% in each case. This compound also displayed a Papp at 18 h in the data set “in vitro” of 15.5 ×10⁻⁶ cm/s. Further, the values for the IC50 on Acetylcholinesterase [3] and against Acetylcholinesterase [4] were 0.21 µM and 0.37 µM, respectively.
Consider `COC(=O)/C=C/C(=O)Nc1cccc(OCCSC(=S)N2CCCCC2)c1`, for which the inhibition in data set [1] worked out at 6.83%; in data set [2] it was 12.8%. This compound came in with a Papp at 18 h in the data set “in vitro” of 21.3 ×10⁻⁶ cm/s. The 50% inhibitory concentration (IC50) against Acetylcholinesterase [3] amounted to 1.39 µM; against Acetylcholinesterase [4] it was 2.56 µM.
The like results for `COC(=O)/C=C/C(=O)Nc1cccc(OCCCCSC(=S)N2CCCC2)c1` were, in that order, less than 5%, 8.8%, 10.4 ×10⁻⁶ cm/s, 6.04 µM and 8.14 µM.
On to `COC(=O)/C=C/C(=O)Nc1cccc(OCCCCSC(=S)N2CCC(N3CCCCC3)CC2)c1`, for which the inhibition in data set [2] was found to be 5.6%. The compound also returned an IC50 against Acetylcholinesterase [4] of 12.7 µM.
Compound `CC(=O)[C@H]1CC[C@H]2[C@@H]3CCC4=CC(=O)CC[C@]4(C)[C@H]3CC[C@]12C` [PROGESTERONE] had a Papp at 18 h in the data set “in vitro” of 11.2 ×10⁻⁶ cm/s.
As for `COC(=O)/C=C/C(=O)Nc1cccc(OCCCCSC(=S)N2CCC(O)CC2)c1`, in data set [2], the inhibition is 10.1%. This compound also had an IC50 at Acetylcholinesterase [4] of 76.5 µM.
The like results for `COC(=O)/C=C/C(=O)Nc1cccc(OCCCCSC(=S)N2C(C)CCCC2C)c1` (centres undefined) were, in that order, 7.14% and 16.5 µM.
